Laboratory results taken from patent US7932050B2, “Enzymatic substrates derived from phenoxazinone and their use as developers in detection of microorganisms with peptidase activity” (bioMerieux, priority 2004, dated 2011).

What was measured:
Assay type in all cases: cell-based
[1] = test system: Burkholderia Gladioli LGM 6880; test: Detection of β-alanine peptidase activity (example 11), colony coloration; details: between 24 and 48 h of incubation; strain LGM 6880
[2] = test system: Escherichia coli; test: as above; details: between 24 and 48 h of incubation; Applicant's collection
[3] = test system: Pseudomonas aeruginosa; test: as above; details: between 24 and 48 h of incubation
[4] = test system: Burkholderia cepacia LMG 18941; test: as above; details: between 24 and 48 h of incubation; strain LMG 18941
[5] = test system: Pseudomonas fluorescens; test: as above; details: between 24 and 48 h of incubation; Applicant's collection
[6] = test system: Pseudomonas putida; test: as above; details: between 24 and 48 h of incubation; Applicant's collection
[7] = test system: Acinetobacter calcoaceticus; test: Detection of β-alanine peptidase activity (example 9), colony coloration; details: between 24 and 48 h of incubation
[8] = test system: Ralstonia basilensis; details: between 24 and 48 h of incubation
[9] = test system: Pseudomonas maltophilia; test: Detection of β-alanine peptidase activity (example 9), colony coloration; details: between 24 and 48 h of incubation
[10] = test system: Pseudomonas fragilis NCIMB 8987; test: as above; details: between 24 and 48 h of incubation; strain NCIMB 8987
[11] = test system: Ralstonia taiwanensis; details: between 24 and 48 h of incubation
[12] = test system: Burkholderia cepacia GIII LMG 18832; test: Detection of β-alanine peptidase activity (example 9), colony coloration; details: between 24 and 48 h of incubation; strain LMG 18832
[13] = test system: Burkholderia cepacia GI LMG1222; test: as above; details: between 24 and 48 h of incubation; strain LMG1222
[14] = test system: Pseudomonas aeruginosa; test: as above; details: between 24 and 48 h of incubation, no accession No.
[15] = test system: Acinetobacter baumannii ATCC 19606; test: as above; details: between 24 and 48 h of incubation; strain ATCC 19606
[16] = test system: Salmonella hadar; test: Detection of L-alanine peptidase activity on Columbia agar containing the substrate; set-up: key to C [head as printed; cells hold growth signs]: the sign ++ signifies very good growth; the sign + signifies good growth of the strain; the sign +/− signifies average growth of the strain; the sign − signifies absence of growth of the strain; details: substrate 50 mg/l in Columbia agar; 24 to 48 h at 37° C.
[17] = test system: Klebsiella pneumoniae NCTC 10896; test: as above; set-up: key to C [head as printed; cells hold growth signs]: the sign ++ signifies very good growth; the sign + signifies good growth of the strain; the sign +/− signifies average growth of the strain; the sign − signifies absence of growth of the strain; details: substrate 50 mg/l in Columbia agar; 24 to 48 h at 37° C.
[18] = test system: Listeria monocytogenes NCTC 11994; test: as above; set-up: key to G [head as printed; cells hold colony color]: I signifies colorless; key to C [head as printed; cells hold growth signs]: the sign ++ signifies very good growth; the sign + signifies good growth of the strain; the sign +/− signifies average growth of the strain; the sign − signifies absence of growth of the strain; details: substrate 50 mg/l in Columbia agar; 24 to 48 h at 37° C.
[19] = test system: Providencia rettgeri NCTC 7475; test: as above; set-up: key to C [head as printed; cells hold growth signs]: the sign ++ signifies very good growth; the sign + signifies good growth of the strain; the sign +/− signifies average growth of the strain; the sign − signifies absence of growth of the strain; details: substrate 50 mg/l in Columbia agar; 24 to 48 h at 37° C.
[20] = test system: Proteus mirabilis NCTC 10975; test: as above; set-up: key to C [head as printed; cells hold growth signs]: the sign ++ signifies very good growth; the sign + signifies good growth of the strain; the sign +/− signifies average growth of the strain; the sign − signifies absence of growth of the strain; details: substrate 50 mg/l in Columbia agar; 24 to 48 h at 37° C.
[21] = test system: Escherichia coli NCTC 10418; test: as above; set-up: key to C [head as printed; cells hold growth signs]: the sign ++ signifies very good growth; the sign + signifies good growth of the strain; the sign +/− signifies average growth of the strain; the sign − signifies absence of growth of the strain; details: substrate 50 mg/l in Columbia agar; 24 to 48 h at 37° C.
[22] = test system: Pseudomonas aeruginosa NCTC 10662; test: as above; set-up: key to C [head as printed; cells hold growth signs]: the sign ++ signifies very good growth; the sign + signifies good growth of the strain; the sign +/− signifies average growth of the strain; the sign − signifies absence of growth of the strain; details: substrate 50 mg/l in Columbia agar; 24 to 48 h at 37° C.
[23] = test system: Streptococcus pyogenes NCTC 8306; test: as above; set-up: key to G [head as printed; cells hold colony color]: I signifies colorless; key to C [head as printed; cells hold growth signs]: the sign ++ signifies very good growth; the sign + signifies good growth of the strain; the sign +/− signifies average growth of the strain; the sign − signifies absence of growth of the strain; details: substrate 50 mg/l in Columbia agar; 24 to 48 h at 37° C.
[24] = test system: Staphylococcus aureus NCTC 6571; test: as above; set-up: key to G [head as printed; cells hold colony color]: I signifies colorless; key to C [head as printed; cells hold growth signs]: the sign ++ signifies very good growth; the sign + signifies good growth of the strain; the sign +/− signifies average growth of the strain; the sign − signifies absence of growth of the strain; details: substrate 50 mg/l in Columbia agar; 24 to 48 h at 37° C.
[25] = strain of Applicant's collection (r9)
[26] = strain of Applicant's collection (r13)
[27] = first P. aeruginosa strain of table 2 (r6)
[28] = fourth P. aeruginosa strain of table 2 (r12)
[29] = second P. aeruginosa strain of table 2 (r8)
[30] = third P. aeruginosa strain of table 2 (r10)

Cc1c2nc3ccc(NC(=O)CCN)cc3oc-2c(C)c(=O)c1C.O=C(O)C(F)(F)F [b-ala-TMP, 7-N-(β-Alanyl)amino-1,2,4-trimethylphenoxazin-3-one trifluoroacetate salt]
coloration [1]: colorless | coloration [2]: orange | coloration ([3]; strain ATCC 9027): pink | coloration ([3]; strain ATCC 10145): orangy- | coloration ([3]; strain ATCC 27853): pink | coloration [3, 25]: orangy- | coloration [3, 26]: colorless | coloration [4]: pale pink | coloration [5]: colorless | coloration [6]: colorless

COC(=O)c1c2oc3cc(NC(=O)CCNC(=O)OC(C)(C)C)ccc3nc-2c(C)c(Cl)c1=O [b-ala-MCMP, methyl 7-N—(N′-t-butoxycarbonyl-β-alanyl)amino-1-methyl-2-chlorophenoxazin-3-one-4-carboxylate]
coloration [1]: colorless | coloration [2]: colorless | coloration ([3]; strain ATCC 9027): pink- | coloration ([3]; strain ATCC 10145): violet | coloration ([3]; strain ATCC 27853): violet | coloration [3, 25]: violet | coloration [3, 26]: colorless | coloration [4]: colorless | coloration [5]: colorless | coloration [6]: colorless

CCCCCc1cc(=O)cc2oc3cc(NC(=O)CCNC(=O)OC(C)(C)C)ccc3nc1-2 [Nonchlorinated beta-alanyl compound, 7-N—(N′-t-butoxycarbonyl-β-alanyl)amino-1-pentylphenoxazin-3-one]
coloration [7]: colorless | coloration [8]: colorless | coloration [9]: colorless | coloration [10]: colorless | coloration [11]: colorless | coloration [12]: yellow | coloration [13]: yellow | coloration [14, 27]: purple | coloration [14, 28]: purple | coloration [14, 29]: purple | coloration [14, 30]: purple | coloration [15]: colorless

Cc1c2nc3ccc(NC(=O)CCN)cc3oc-2cc(=O)c1C.O=C(O)C(F)(F)F [b-ala-DMP, 7-N-(β-Alanyl)amino-1,2-dimethylphenoxazin-3-one trifluoroacetate salt]
coloration [1]: colorless | coloration [2]: orange | coloration ([3]; strain ATCC 9027): deep pink | coloration ([3]; strain ATCC 10145): deep pink | coloration ([3]; strain ATCC 27853): pink | coloration [3, 25]: deep pink | coloration [3, 26]: colorless | coloration [4]: pale pink | coloration [5]: colorless | coloration [6]: colorless

CCCCCc1cc(=O)cc2oc3cc(NC(=O)[C@H](C)NC(=O)OC(C)(C)C)ccc3nc1-2 [Nonchlorinated L-alanyl compound, 7-N—(N″-t-butoxycarbonyl-L-alanyl)amino-1-pentylphenoxazin-3-one]
C [head as printed; cells hold growth signs] [16]: + | G [head as printed; cells hold colony color] [16]: purple | C [head as printed; cells hold growth signs] [17]: + | G [head as printed; cells hold colony color] [17]: purple | C [head as printed; cells hold growth signs] [18]: − | G [head as printed; cells hold colony color] [18]: I | C [head as printed; cells hold growth signs] [19]: + | G [head as printed; cells hold colony color] [19]: purple | C [head as printed; cells hold growth signs] [20]: + | G [head as printed; cells hold colony color] [20]: purple | C [head as printed; cells hold growth signs] [21]: + | G [head as printed; cells hold colony color] [21]: purple | C [head as printed; cells hold growth signs] [22]: + | G [head as printed; cells hold colony color] [22]: purple | C [head as printed; cells hold growth signs] [23]: − | G [head as printed; cells hold colony color] [23]: I | C [head as printed; cells hold growth signs] [24]: − | G [head as printed; cells hold colony color] [24]: I

CCCCCc1c2nc3ccc(NC(=O)[C@H](C)NC(=O)OC(C)(C)C)cc3oc-2cc(=O)c1Cl [Chlorinated L-alanyl compound, 7-N—(N′-t-butoxycarbonyl-L-alanyl)amino-2-chloro-1-pentylphenoxazin-3-one]
C [head as printed; cells hold growth signs] [16]: + | G [head as printed; cells hold colony color] [16]: pinl/purple | C [head as printed; cells hold growth signs] [17]: + | G [head as printed; cells hold colony color] [17]: pink/purple | C [head as printed; cells hold growth signs] [18]: + | G [head as printed; cells hold colony color] [18]: I | C [head as printed; cells hold growth signs] [19]: + | G [head as printed; cells hold colony color] [19]: pink/purple | C [head as printed; cells hold growth signs] [20]: + | G [head as printed; cells hold colony color] [20]: pink/purple | C [head as printed; cells hold growth signs] [21]: + | G [head as printed; cells hold colony color] [21]: pink/purple | C [head as printed; cells hold growth signs] [22]: + | G [head as printed; cells hold colony color] [22]: pink/purple | C [head as printed; cells hold growth signs] [23]: +/− | G [head as printed; cells hold colony color] [23]: I | C [head as printed; cells hold growth signs] [24]: + | G [head as printed; cells hold colony color] [24]: I

CCCCCc1c2nc3ccc(NC(=O)CCNC(=O)OC(C)(C)C)cc3oc-2cc(=O)c1Cl [Chlorinated beta-alanyl compound, 7-N—(N′-t-butoxycarbonyl-β-alanyl)amino-2-chloro-1-pentylphenoxazin-3-one]
coloration [7]: colorless | coloration [8]: colorless | coloration [9]: colorless | coloration [10]: colorless | coloration [11]: colorless | coloration [12]: yellow | coloration [13]: yellow | coloration [14, 27]: purple | coloration [14, 28]: purple | coloration [14, 29]: pale purple | coloration [14, 30]: pale purple | coloration [15]: colorless
